Source: ChEMBL document CHEMBL3045074, “Synthesis and anticonvulsant activity of novel quinazolin-4(3H)-one derived pyrazole analogs” (Med Chem Res, 2013)
The source made the active and inactive calls. No cut-off for these calls is given here.

How the values were obtained:
Mus musculus [1] = assay: Anticonvulsant activity in Swiss albino Mus musculus (mouse) assessed as protection against subcutaneous pentylenetetrazole-induced seizure at 300 mg/kg, ip after 4 hr; type: functional, organism-based; parameters: dose 300 mg/kg
Mus musculus [2] = assay: Anticonvulsant activity in Swiss albino Mus musculus (mouse) assessed as protection against subcutaneous pentylenetetrazole-induced seizure at 300 mg/kg, ip after 0.5 hr; type: functional, organism-based; parameters: dose 300 mg/kg
Mus musculus [3] = assay: Anticonvulsant activity in Swiss albino Mus musculus (mouse) assessed as protection against maximal electroshock-induced seizures at 300 mg/kg, ip after 4 hr; type: functional, organism-based; parameters: dose 300 mg/kg
Mus musculus [4] = assay: Anticonvulsant activity in Swiss albino Mus musculus (mouse) assessed as protection against maximal electroshock-induced seizures at 300 mg/kg, ip after 0.5 hr; type: functional, organism-based; parameters: dose 300 mg/kg
Mus musculus [5] = assay: Anticonvulsant activity in Swiss albino Mus musculus (mouse) assessed as protection against maximal electroshock-induced seizures at 100 mg/kg, ip after 0.5 hr; type: functional, organism-based; parameters: dose 100 mg/kg
Mus musculus [6] = assay: Neurotoxicity in Swiss albino Mus musculus (mouse) assessed as minimal motor impairment at 300 mg/kg, ip after 4 hr by rotorod test; type: toxicity, organism-based; parameters: dose 300 mg/kg, route intraperitoneal; conditions: in vivo
Mus musculus [7] = assay: Neurotoxicity in Swiss albino Mus musculus (mouse) assessed as minimal motor impairment at 300 mg/kg, ip after 0.5 hr by rotorod test; type: toxicity, organism-based; parameters: dose 300 mg/kg, route intraperitoneal; conditions: in vivo
Rattus norvegicus [8] = assay: Anticonvulsant activity in Wistar Rattus norvegicus (rat) assessed as protection against maximal electroshock-induced seizures at 30 mg/kg, po after 4 hr; type: functional
Rattus norvegicus [9] = assay: Neurotoxicity in Wistar Rattus norvegicus (rat) assessed as minimal motor impairment at 30 mg/kg, po after 0.25 to 4 hr by rotorod test; type: toxicity, organism-based; parameters: dose 30 mg/kg, route oral; conditions: in vivo
Rattus norvegicus [10] = assay: Anticonvulsant activity in Wistar Rattus norvegicus (rat) assessed as protection against maximal electroshock-induced seizures at 30 mg/kg, po after 2 hr; type: functional
Rattus norvegicus [11] = assay: Anticonvulsant activity in Wistar Rattus norvegicus (rat) assessed as protection against maximal electroshock-induced seizures at 30 mg/kg, po after 1 hr; type: functional
Rattus norvegicus [12] = assay: Anticonvulsant activity in Wistar Rattus norvegicus (rat) assessed as protection against maximal electroshock-induced seizures at 30 mg/kg, po after 0.5 hr; type: functional
Rattus norvegicus [13] = assay: Anticonvulsant activity in Wistar Rattus norvegicus (rat) assessed as protection against maximal electroshock-induced seizures at 30 mg/kg, po after 0.25 hr; type: functional
Mus musculus [14] = assay: Anticonvulsant activity in Swiss albino Mus musculus (mouse) assessed as protection against subcutaneous pentylenetetrazole-induced seizure at 30 to 300 mg/kg, ip after 0.5 hr; type: functional, organism-based
Mus musculus [15] = assay: Anticonvulsant activity in Swiss albino Mus musculus (mouse) assessed as protection against maximal electroshock-induced seizures at 30 mg/kg, ip after 0.5 hr; type: functional, organism-based; parameters: dose 30 mg/kg
Mus musculus [16] = assay: Anticonvulsant activity in Swiss albino Mus musculus (mouse) assessed as protection against maximal electroshock-induced seizures at 100 mg/kg, ip after 4 hr; type: functional, organism-based; parameters: dose 100 mg/kg
Mus musculus [17] = assay: Anticonvulsant activity in Swiss albino Mus musculus (mouse) assessed as protection against subcutaneous pentylenetetrazole-induced seizure at 100 mg/kg, ip after 0.5 hr; type: functional, organism-based; parameters: dose 100 mg/kg
Mus musculus [18] = assay: Neurotoxicity in Swiss albino Mus musculus (mouse) assessed as minimal motor impairment at 100 mg/kg, ip after 4 hr by rotorod test; type: toxicity, organism-based; parameters: dose 100 mg/kg, route intraperitoneal; conditions: in vivo
Mus musculus [19] = assay: Neurotoxicity in Swiss albino Mus musculus (mouse) assessed as minimal motor impairment at 100 mg/kg, ip after 0.5 hr by rotorod test; type: toxicity, organism-based; parameters: dose 100 mg/kg, route intraperitoneal; conditions: in vivo
Mus musculus [20] = assay: Anticonvulsant activity in Swiss albino Mus musculus (mouse) assessed as protection against maximal electroshock-induced seizures at 30 mg/kg, ip after 4 hr; type: functional, organism-based; parameters: dose 30 mg/kg

COc1ccc(C2CC(c3ccccc3)=NN2C(=O)c2ccc(-n3c(-c4ccccc4)nc4ccccc4c3=O)cc2)cc1 (configuration not stated)
Activity (Mus musculus [1]): Active
Activity (Mus musculus [2]): inactive
Activity (Mus musculus [3]): Active
Activity (Mus musculus [4]): inactive

Cc1nc2ccccc2c(=O)n1-c1ccc(C(=O)N2N=C(c3ccccc3)CC2c2cccc([N+](=O)[O-])c2)cc1 (configuration not stated)
Activity (Mus musculus [1]): Active
Activity (Mus musculus [2]): inactive
Activity (Mus musculus [3]): inactive
Activity (Mus musculus [4]): inactive

COc1ccc(C2CC(c3ccccc3)=NN2C(=O)c2ccc(-n3c(C)nc4c(Br)cc(Br)cc4c3=O)cc2)cc1 (configuration not stated)
Activity (Mus musculus [5]): Active
Activity (Mus musculus [6]): Toxic
Activity (Mus musculus [7]): Toxic
Activity (Mus musculus [1]): inactive
Activity (Mus musculus [2]): Active
Activity (Mus musculus [3]): Active

Cc1ccc(C2CC(c3ccccc3)=NN2C(=O)c2ccc(-n3c(C)nc4c(Br)cc(Br)cc4c3=O)cc2)cc1 (configuration not stated)
Activity (Mus musculus [5]): Active
Activity (Rattus norvegicus [8]): 75%
Activity (Rattus norvegicus [9]): Non-toxic
Activity (Rattus norvegicus [10]): 75%
Activity (Rattus norvegicus [11]): 50%
Activity (Rattus norvegicus [12]): 50%
Activity (Rattus norvegicus [13]): 25%
Activity (Mus musculus [6]): Toxic
Activity (Mus musculus [7]): Non-toxic
Activity (Mus musculus [1]): Active
Activity (Mus musculus [14]): Active
Activity (Mus musculus [3]): Active

Cc1nc2c(Br)cc(Br)cc2c(=O)n1-c1ccc(C(=O)N2N=C(c3ccccc3)CC2c2ccc(N(C)C)cc2)cc1 (configuration not stated)
Activity (Mus musculus [15]): Active
Activity (Rattus norvegicus [8]): 0%
Activity (Rattus norvegicus [9]): Non-toxic
Activity (Rattus norvegicus [10]): 0%
Activity (Rattus norvegicus [11]): 25%
Activity (Rattus norvegicus [12]): 50%
Activity (Rattus norvegicus [13]): 0%
Activity (Mus musculus [6]): Toxic
Activity (Mus musculus [7]): Toxic
Activity (Mus musculus [1]): inactive
Activity (Mus musculus [2]): Active
Activity (Mus musculus [16]): Active

Cc1nc2c(Br)cc(Br)cc2c(=O)n1-c1ccc(C(=O)N2N=C(c3ccccc3)CC2c2ccc(Cl)cc2)cc1 (configuration not stated)
Activity (Mus musculus [15]): Active
Activity (Rattus norvegicus [8]): 100%
Activity (Rattus norvegicus [9]): Non-toxic
Activity (Rattus norvegicus [10]): 100%
Activity (Rattus norvegicus [11]): 50%
Activity (Rattus norvegicus [12]): 50%
Activity (Rattus norvegicus [13]): 25%
Activity (Mus musculus [6]): Non-toxic
Activity (Mus musculus [7]): Non-toxic
Activity (Mus musculus [1]): Active
Activity (Mus musculus [17]): Active
Activity (Mus musculus [16]): Active

O=C(c1ccc(-n2c(-c3ccccc3)nc3ccccc3c2=O)cc1)N1N=C(c2ccccc2)CC1c1ccc(Cl)cc1 (configuration not stated)
Activity (Mus musculus [5]): Active
Activity (Mus musculus [6]): Toxic
Activity (Mus musculus [7]): Non-toxic
Activity (Mus musculus [1]): inactive
Activity (Mus musculus [2]): Active
Activity (Mus musculus [3]): Active

O=C(c1ccc(-n2c(-c3ccccc3)nc3ccccc3c2=O)cc1)N1N=C(c2ccccc2)CC1c1ccc(O)cc1 (configuration not stated)
Activity (Mus musculus [5]): Active
Activity (Mus musculus [6]): Non-toxic
Activity (Mus musculus [7]): Non-toxic
Activity (Mus musculus [1]): Active
Activity (Mus musculus [2]): inactive
Activity (Mus musculus [3]): inactive

CN(C)c1ccc(C2CC(c3ccccc3)=NN2C(=O)c2ccc(-n3c(-c4ccccc4)nc4ccccc4c3=O)cc2)cc1 (configuration not stated)
Activity (Mus musculus [1]): inactive
Activity (Mus musculus [2]): inactive
Activity (Mus musculus [3]): Active
Activity (Mus musculus [4]): inactive

O=C(c1ccc(-n2c(-c3ccccc3)nc3ccccc3c2=O)cc1)N1N=C(c2ccccc2)CC1c1cccc([N+](=O)[O-])c1 (configuration not stated)
Activity (Mus musculus [1]): inactive
Activity (Mus musculus [2]): Active
Activity (Mus musculus [3]): inactive
Activity (Mus musculus [4]): inactive

O=C1NC(=O)C(c2ccccc2)(c2ccccc2)N1 [PHENYTOIN]
Activity (Mus musculus [15]): Active
Activity (Rattus norvegicus [8]): 75%
Activity (Rattus norvegicus [9]): Non-toxic
Activity (Rattus norvegicus [10]): 75%
Activity (Rattus norvegicus [11]): 75%
Activity (Rattus norvegicus [12]): 100%
Activity (Rattus norvegicus [13]): 25%
Activity (Mus musculus [18]): Toxic
Activity (Mus musculus [19]): Toxic
Activity (Mus musculus [1]): inactive
Activity (Mus musculus [2]): inactive
Activity (Mus musculus [20]): Active

Cc1nc2ccccc2c(=O)n1-c1ccc(C(=O)N2N=C(c3ccccc3)CC2c2ccc(Cl)cc2)cc1 (configuration not stated)
Activity (Mus musculus [15]): Active
Activity (Rattus norvegicus [8]): 75%
Activity (Rattus norvegicus [9]): Non-toxic
Activity (Rattus norvegicus [10]): 75%
Activity (Rattus norvegicus [11]): 50%
Activity (Rattus norvegicus [12]): 50%
Activity (Rattus norvegicus [13]): 25%
Activity (Mus musculus [6]): Non-toxic
Activity (Mus musculus [7]): Toxic
Activity (Mus musculus [1]): Active
Activity (Mus musculus [17]): Active
Activity (Mus musculus [16]): Active

CCC1(C)CC(=O)NC1=O (configuration not stated) [ETHOSUXIMIDE]
Activity (Mus musculus [6]): Non-toxic
Activity (Mus musculus [7]): Non-toxic
Activity (Mus musculus [1]): Active
Activity (Mus musculus [17]): Active
Activity (Mus musculus [3]): inactive
Activity (Mus musculus [4]): inactive

Cc1ccc(C2CC(c3ccccc3)=NN2C(=O)c2ccc(-n3c(C)nc4ccccc4c3=O)cc2)cc1 (configuration not stated)
Activity (Mus musculus [5]): Active
Activity (Rattus norvegicus [8]): 75%
Activity (Rattus norvegicus [9]): Non-toxic
Activity (Rattus norvegicus [10]): 75%
Activity (Rattus norvegicus [11]): 50%
Activity (Rattus norvegicus [12]): 50%
Activity (Rattus norvegicus [13]): 25%
Activity (Mus musculus [6]): Non-toxic
Activity (Mus musculus [7]): Non-toxic
Activity (Mus musculus [1]): Active
Activity (Mus musculus [17]): Active
Activity (Mus musculus [3]): Active

COc1ccc(C2CC(c3ccccc3)=NN2C(=O)c2ccc(-n3c(C)nc4ccccc4c3=O)cc2)cc1 (configuration not stated)
Activity (Mus musculus [5]): Active
Activity (Mus musculus [6]): Toxic
Activity (Mus musculus [7]): Non-toxic
Activity (Mus musculus [1]): inactive
Activity (Mus musculus [2]): Active
Activity (Mus musculus [3]): inactive

Cc1nc2ccccc2c(=O)n1-c1ccc(C(=O)N2N=C(c3ccccc3)CC2c2ccc(N(C)C)cc2)cc1 (configuration not stated)
Activity (Mus musculus [5]): Active
Activity (Rattus norvegicus [8]): 50%
Activity (Rattus norvegicus [9]): Non-toxic
Activity (Rattus norvegicus [10]): 25%
Activity (Rattus norvegicus [11]): 0%
Activity (Rattus norvegicus [12]): 0%
Activity (Rattus norvegicus [13]): 0%
Activity (Mus musculus [6]): Non-toxic
Activity (Mus musculus [7]): Non-toxic
Activity (Mus musculus [1]): Active
Activity (Mus musculus [17]): Active
Activity (Mus musculus [3]): Active

Cc1nc2c(Br)cc(Br)cc2c(=O)n1-c1ccc(C(=O)N2N=C(c3ccccc3)CC2c2cccc([N+](=O)[O-])c2)cc1 (configuration not stated)
Activity (Mus musculus [1]): Active
Activity (Mus musculus [2]): inactive
Activity (Mus musculus [3]): inactive
Activity (Mus musculus [4]): inactive

Cc1nc2ccccc2c(=O)n1-c1ccc(C(=O)N2N=C(c3ccccc3)CC2c2ccc(O)cc2)cc1 (configuration not stated)
Activity (Mus musculus [15]): Active
Activity (Rattus norvegicus [8]): 100%
Activity (Rattus norvegicus [9]): Non-toxic
Activity (Rattus norvegicus [10]): 100%
Activity (Rattus norvegicus [11]): 50%
Activity (Rattus norvegicus [12]): 50%
Activity (Rattus norvegicus [13]): 25%
Activity (Mus musculus [6]): Toxic
Activity (Mus musculus [19]): Toxic
Activity (Mus musculus [1]): Active
Activity (Mus musculus [2]): Active
Activity (Mus musculus [3]): Active

Cc1ccc(C2CC(c3ccccc3)=NN2C(=O)c2ccc(-n3c(-c4ccccc4)nc4ccccc4c3=O)cc2)cc1 (configuration not stated)
Activity (Mus musculus [1]): inactive
Activity (Mus musculus [2]): inactive
Activity (Mus musculus [3]): inactive
Activity (Mus musculus [4]): Active

Cc1nc2c(Br)cc(Br)cc2c(=O)n1-c1ccc(C(=O)N2N=C(c3ccccc3)CC2c2ccc(O)cc2)cc1 (configuration not stated)
Activity (Mus musculus [15]): Active
Activity (Rattus norvegicus [8]): 100%
Activity (Rattus norvegicus [9]): Non-toxic
Activity (Rattus norvegicus [10]): 100%
Activity (Rattus norvegicus [11]): 50%
Activity (Rattus norvegicus [12]): 50%
Activity (Rattus norvegicus [13]): 25%
Activity (Mus musculus [6]): Non-toxic
Activity (Mus musculus [7]): Toxic
Activity (Mus musculus [1]): Active
Activity (Mus musculus [2]): Active
Activity (Mus musculus [16]): Active
